From patent US8106055B2, “Substituted amide compounds” (Gruenenthal GmbH, priority 2007, dated 2012)

These compounds were tested against T1, human bradykinin 1 receptor (B1R) (Homo sapiens, UniProt P46663) (assay: Functional investigation on the human bradykinin 1 receptor (B1R), Ca2+ FLIPR assay in CHO K1 hB1R cells). Conditions: B1R antagonism human; test substance 10 μM; Ca2+ FLIPR, CHO K1 hB1R cells.
T1 construct: expressed in transfected cells; host or cells: CHO K1 cells
T1 sequence (P46663 1-353): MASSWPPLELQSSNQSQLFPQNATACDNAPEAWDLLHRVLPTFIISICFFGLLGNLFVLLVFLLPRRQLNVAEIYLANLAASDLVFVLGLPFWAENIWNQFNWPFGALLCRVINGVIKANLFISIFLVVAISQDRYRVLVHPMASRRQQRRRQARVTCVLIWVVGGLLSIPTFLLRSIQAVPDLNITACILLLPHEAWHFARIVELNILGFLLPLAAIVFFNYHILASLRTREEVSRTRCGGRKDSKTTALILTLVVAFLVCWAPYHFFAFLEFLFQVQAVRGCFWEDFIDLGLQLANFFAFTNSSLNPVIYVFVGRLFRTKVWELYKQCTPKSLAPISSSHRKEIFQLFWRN
Format: cell-based
In short: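 Fluo-4 Ca2+ readout, peak fluorescence. Stable CHO K1 transfectants; compound pre-incubated 10-20 min, then EC80 agonist—Lys-Des-Arg9-BK for hB1R, Des-Arg9-BK for rB1R. % inhibition vs maximal inhibition; IC50 from multiple concentrations, duplicate/triplicate, ≥2 independent runs.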

SMILES	B1R Ant. h [10 μM] % Inhibition [%]
CN(C)C(c1cccc(F)c1)C1CCC(CNC(=O)COCC2CCCN(S(=O)(=O)c3ccccc3)C2)CC1 (centres unmarked) [Example 220]	6
Cc1ccc(S(=O)(=O)N(C)CCOCC(=O)NC2CCC(C(c3cccs3)N(C)C)CC2)cc1 (centres unmarked) [Example 168, N-(4-((dimethylamino) (thiophen-2-yl)methyl)cyclohexyl)-2-(2-(N,4-dimethylphenylsulfamido)ethoxy)acetamide]	−5
CN(C)C(c1ccccc1)C1CCC(NC(=O)COCC2CCCN2S(=O)(=O)c2c(Cl)cc(Cl)cc2Cl)CC1 (centres unmarked) [Example 611, N-[4-(Dimethylaminophenylmethyl)-cyclohexyl]-2-[1-(2,4,6-trichlorobenzenesulfonyl)-pyrrolidin-2-ylmethoxy]-acetamide]	97
CN(C)C(c1cccc(F)c1)C1CCC(CCNC(=O)COCCN(C)S(=O)(=O)c2ccc(F)cc2)CC1 (centres unmarked) [Example 218]	7
COc1ccc(S(=O)(=O)N2Cc3ccccc3CC2COCC(=O)NC2CCC(C(c3ccc(F)cc3)N(C)C)CC2)cc1 (centres unmarked) [Example 234]	50
Cc1ccc(S(=O)(=O)N(C)CCOCC(=O)NCC2CCC(C(c3cccc(F)c3)N(C)C)CC2)cc1 (centres unmarked) [Example 227]	6
COc1ccc(S(=O)(=O)N2CCCCC2CCOCC(=O)NCCC2CCC(C(c3cccc(F)c3)N(C)C)CC2)cc1 (centres unmarked) [Example 213]	78
COc1cc(C)c(S(=O)(=O)N2CCC(OCC(=O)NCC3CCC(C(c4cccc(F)c4)N(C)C)CC3)C2)c(C)c1 (centres unmarked) [Example 265]	93
CN(C)C(c1ccccc1)C1CCC(NC(=O)COCC2CCCN2S(=O)(=O)c2c(Cl)cc(Cl)cc2Cl)CC1 (centres unmarked) [Example 612, N-[4-(Dimethylaminophenylmethyl)-cyclohexyl]-2-[1-(2,4,6-trichlorobenzenesulfonyl)-pyrrolidin-2-ylmethoxy]-acetamide]	103
CN(C)C(c1ccc(Cl)cc1)C1CCC(CCNC(=O)COCCN(C)S(=O)(=O)c2c(Cl)cccc2Cl)CC1 (centres unmarked) [Example 274]	100
COc1cc(C)c(S(=O)(=O)N2CCCC(OCC(=O)NCCC3CCC(C(c4cccc(F)c4)N(C)C)CC3)C2)c(C)c1C (centres unmarked) [Example 221]	21
CCN(CCOCC(=O)NCCC1CCC(C(c2cccc(F)c2)N(C)C)CC1)S(=O)(=O)c1c(C)cc(OC)c(C)c1C (centres unmarked) [Example 209]	64
CN(C)C(c1cccc(F)c1)C1CCC(NC(=O)COC2CCN(S(=O)(=O)c3ccccc3)C2)CC1 (centres unmarked) [Example 271]	−7
COc1ccc(S(=O)(=O)N2CCCCC2COCC(=O)NC2CCC(C(c3cccc(F)c3)N(C)C)CC2)cc1 (centres unmarked) [Example 255]	37
CN(C)C(c1cccc(F)c1)C1CCC(NC(=O)COCCN(C)S(=O)(=O)c2ccc(Cl)cc2Cl)CC1 (centres unmarked) [Example 217]	85
CN(C)C(c1ccc(Cl)cc1)C1CCC(CCNC(=O)COCCN(C)S(=O)(=O)c2ccc(F)cc2)CC1 (centres unmarked) [Example 241]	29
COc1ccc(S(=O)(=O)N2CCCCC2COCC(=O)NC2CCC(C(c3cccs3)N(C)C)CC2)cc1OC (centres unmarked) [Example 261]	−28
CN(C)C(c1cccs1)C1CCC(CCNC(=O)COC2CCCCC2N(C)S(=O)(=O)c2ccc(Cl)c(Cl)c2)CC1 (centres unmarked) [Example 214]	−2
COc1cc(C)c(S(=O)(=O)N(C)CCOCC(=O)NC2CCC(C(c3ccccc3)N(C)C)CC2)c(C)c1 (centres unmarked) [Example 239]	104
CN(C)C(c1cccs1)C1CCC(CNC(=O)COC2CCN(S(=O)(=O)c3ccccc3)CC2)CC1 (centres unmarked) [Example 276]	−12
COc1cc(C)c(S(=O)(=O)N(C)CCOCC(=O)NC2CCC(C(c3cccc(F)c3)N(C)C)CC2)c(C)c1 (centres unmarked) [Example 228]	104
COc1ccc(S(=O)(=O)N2CCCC2COCC(=O)NCCC2CCC(C(c3cccc(F)c3)N(C)C)CC2)cc1 (centres unmarked) [Example 224]	34
Cc1cc(C)c(S(=O)(=O)N2CCC(OCC(=O)NCCC3CCC(C(c4cccc(F)c4)N(C)C)CC3)C2)c(C)c1 (centres unmarked) [Example 264]	77
CCN(CCOCC(=O)NCC1CCC(C(c2ccccc2)N(C)C)CC1)S(=O)(=O)c1c(C)cc(OC)c(C)c1C (centres unmarked) [Example 231]	9
CN(C)C(c1cccc(F)c1)C1CCC(NC(=O)COCC2CCCN(S(=O)(=O)c3ccccc3)C2)CC1 (centres unmarked) [Example 266]	4

SMILES	B1R Ant. h [10 μM] % Inhibition [%]
CN(C)C(c1ccc(Cl)cc1)C1CCC(CNC(=O)COC2CCCCC2N(C)S(=O)(=O)c2ccc(Cl)c(Cl)c2)CC1 (centres unmarked) [Example 269]	7
CN(C)C(c1ccc(Cl)cc1)C1CCC(CNC(=O)COCCN(C)S(=O)(=O)c2ccc(F)cc2)CC1 (centres unmarked) [Example 263]	18
COc1cc(C)c(S(=O)(=O)N2CCC(OCC(=O)NCCC3CCC(C(c4cccc(F)c4)N(C)C)CC3)CC2)c(C)c1C (centres unmarked) [Example 232]	17
CN(C)C(c1cccc(F)c1)C1CCC(CNC(=O)COC2CCN(S(=O)(=O)c3ccc(Cl)cc3)C2)CC1 (centres unmarked) [Example 258]	−12
CN(C)C(c1cccc(F)c1)C1CCC(CNC(=O)COC2CCN(S(=O)(=O)c3ccc(F)cc3)C2)CC1 (centres unmarked) [Example 275]	15
CN(C)C(c1ccccc1)C1CCC(CNC(=O)COCC2CCCN(S(=O)(=O)c3ccccc3)C2)CC1 (centres unmarked) [Example 129, N((4((dimethylamino)(phenyl)methyl)cyclohexyl)methyl)-2-((1-(phenylsulfonyl)piperidin-3-yl)methoxy)acetamide]	−5
COc1ccc(S(=O)(=O)N2CCCCC2CCOCC(=O)NC2CCC(C(c3ccc(F)cc3)N(C)C)CC2)cc1 (centres unmarked) [Example 212]	49
COc1cc(C)c(S(=O)(=O)N2CCC(OCC(=O)NCCC3CCC(C(c4cccc(F)c4)N(C)C)CC3)C2)c(C)c1C (centres unmarked) [Example 253]	47
COc1ccc(S(=O)(=O)N(C)CCOCC(=O)NC2CCC(C(c3cccc(F)c3)N(C)C)CC2)cc1 (centres unmarked) [Example 250]	12
Cc1cc(C)c(S(=O)(=O)N(C)CCOCC(=O)NC2CCC(C(c3cccs3)N(C)C)CC2)c(C)c1 (centres unmarked) [Example 235]	31
CN(C)C(c1cccc(F)c1)C1CCC(CCNC(=O)COCC2CCCN2S(=O)(=O)c2ccc(Cl)c(Cl)c2)CC1 (centres unmarked) [Example 202]	48
Cc1ccc(S(=O)(=O)N(C)CCOCC(=O)NCC2CCC(C(c3ccc(Cl)cc3)N(C)C)CC2)cc1 (centres unmarked) [Example 273]	25
CN(C)C(c1ccccc1)C1CCC(NC(=O)COCC2CCCN2S(=O)(=O)c2c(Cl)cc(Cl)cc2Cl)CC1 (centres unmarked) [Example 613, N-[4-(Dimethylaminophenylmethyl)-cyclohexyl]-2-[1-(2,4,6-trichlorobenzenesulfonyl)-pyrrolidin-2-ylmethoxy]-acetamide]	66
COc1cc(C)c(S(=O)(=O)N2CCN(CCOCC(=O)NC3CCC(C(c4ccc(F)cc4)N(C)C)CC3)CC2)c(C)c1C (centres unmarked) [Example 222]	54
CN(C)C(c1cccc(F)c1)C1CCC(NC(=O)COC2CCCN(S(=O)(=O)c3ccccc3)C2)CC1 (centres unmarked) [Example 277]	4
CN(C)C(c1cccc(F)c1)C1CCC(CNC(=O)COCCN(C)S(=O)(=O)c2ccc(F)cc2)CC1 (centres unmarked) [Example 229]	7
COc1cc(C)c(S(=O)(=O)N(CCOCC(=O)NCC2CCC(C(c3ccccc3)N(C)C)CC2)Cc2ccccc2)c(C)c1C (centres unmarked) [Example 201]	76
COc1cc(C)c(S(=O)(=O)N2CCN(CCOCC(=O)NCC3CCC(C(c4cccc(F)c4)N(C)C)CC3)CC2)c(C)c1C (centres unmarked) [Example 223]	52
COc1ccc(S(=O)(=O)N2CCCCC2CCOCC(=O)NCC2CCC(C(c3cccc(F)c3)N(C)C)CC2)cc1 (centres unmarked) [Example 203]	42
CN(C)C(c1ccc(F)cc1)C1CCC(NC(=O)COC2CCCCC2N(C)S(=O)(=O)c2ccc(Cl)c(Cl)c2)CC1 (centres unmarked) [Example 256]	52
CN(C)C(c1ccc(F)cc1)C1CCC(CNC(=O)COCC2CCCN2S(=O)(=O)c2ccc(Cl)c(Cl)c2)CC1 (centres unmarked) [Example 267]	68
CN(C)C(c1ccc(F)cc1)C1CCC(CCNC(=O)COC2CCCCC2N(C)S(=O)(=O)c2ccc(Cl)c(Cl)c2)CC1 (centres unmarked) [Example 244]	21
CN(C)C(c1cccc(F)c1)C1CCC(CNC(=O)COC2CCN(S(=O)(=O)c3ccc(Cl)cc3Cl)C2)CC1 (centres unmarked) [Example 225]	51
Cc1ccc(S(=O)(=O)N(C)CCOCC(=O)NC2CCC(C(c3cccc(F)c3)N(C)C)CC2)cc1 (centres unmarked) [Example 226]	−4

Same assay, conditions: CHO-K1, B1R antagonism human; test substance 10 μM; Ca2+ FLIPR, CHO K1 hB1R cells; read-out: B1R Ant. h [10 μM] % Inhibition

SMILES	inhibition at 10 µM [%]
CN(C)C(c1ccccc1)C1CCC(NC(=O)COC2CCCN(S(=O)(=O)c3c(Cl)cc(Cl)cc3Cl)C2)CC1 (centres unmarked) [Example 608, N-[4-(dimethylaminophenylmethyl)-cyclohexyl]-2-[1-(2,4,6-trichlorobenzenesulfonyl)-piperidin-3-yloxy]-acetamide]	78
